In US8096982B2, “Method and apparatus to enhance optical transparency of biological tissues” (priority 1998, dated 2012):

What was measured:
sclera = type: in vivo, rabbit; conditions: for signs of inflammation on follow up examination: rabbit, in vivo; for time for sclera to turn clear: topical drops on exposed sclera, conjunctiva surgically separated
Protocol: In order to assess the longitudinal effects of topical administration of glycerol or diatrizoate meglumine acid on the sclera, in-vivo experiments were carried out on two rabbits, and the eyes were examined for signs of inflammation once a day for approximately 1 week.
Each rabbit was put under anesthesia using an intra-muscular injection of Rompin® and Ketamine®. The conjunctiva serves as the permeability barrier for the sclera, and therefore, the conjunctiva was surgically separated from the sclera and the distal surface of the sclera was exposed. Topical drops of glycerol were administered on one eye, and of diatrizoate meglumine acid in the contra-lateral eye, for both rabbits. In the case of glycerol, the sclera turned clear, almost instantaneously (in less than 5 seconds), whereas in the case of diatrizoate meglumine acid, the sclera turned clear in approximately 1 minute. The conjunctiva was stretched over the sclera, again, and stay sutures were used to re-attach the conjunctiva to the limbal region. Ocumycing was administered topically to both eyes which had undergone surgery, to prevent infection. After approximately 5-10 minutes, the sclera in both eyes became opaque, again.

[1] = Optical transmission characteristics of the agent in a cuvette (UV-Vis-NIR spectrophotometer); type: physicochemical
Protocol: Diatrizoate meglumine acid, which is commercially known as Hypaque®, is a radiographic injection solution. […] In an experiment, a cuvette was filled with diatrizoate meglumine acid and its optical transmission characteristics were evaluated using a Varian CARY 5E™ UV-Vis-NIR spectrophotometer.

porcine sclera = test: Diffuse transmission through excised porcine sclera before and after submersion in clarifying agent; conditions: maximum increase, at 750 nm, range 350-750 nm
Protocol: Porcine eyes were enucleated immediately post-mortem, and were transported to the laboratory in a wet gauze pad, held at 4° C. during transport in a well-insulated cooler. Each eye was inflated with saline. Limbal conjunctiva and Tenons capsule were dissected and excised using a pair of blunt Wescott scissors. A No. 64 Beaver blade was then used to outline 20 mm×20 mm sections of the sclera from the limbus to the equator of the globe. Incisions were deepened to the supra-choroidal space. Sections of sclera were then lifted off the intact choroid and ciliary body. Scleral thickness was measured and was determined to be 1.65 mm on average.
Three prepared sections of sclera were each then placed between quartz slides, and then between two flat aluminum plates. The tissue sample assembly was then fixed against the input port of a diffuse reflectance accessory (integrating sphere) of a Varian Cary 5E™ UV-Vis-NIR spectrophotometer, and diffuse transmission was measured for wavelengths ranging from 350 nm to 750 nm. The three tissue samples were then submerged in separate containers of glycerol, the first being submerged for 5 minutes, the second for 10 minutes, and the third for 15 minutes. Each sample was then again placed in the tissue assembly and was fixed against the input port of the diffuse reflectance accessory of the spectrophotometer, and the diffuse transmission was measured again over the same wavelength range as above. These measurements were also carried out, using three other scleral samples, and diatrizoate meglumine acid as the IRIM agent.

edematous corneas = conditions: glycerol applied topically in concentrations from 50% to 100%; cited from earlier work
human skin = conditions: approximately 8 minutes after topical administration; stratum corneum tape-stripped; 480-800 nm
Protocol: Two skin surfaces on the forearm were shaved and cleaned prior to measurements. A tape-strip method was used to remove the stratum corneum. […] The topical drugs administered formed an approximate circle of 1 cm in diameter. The drugs were left to diffuse into the tissue for approximately 8 minutes.
Surface reflectance measurements were made immediately after tape stripping of the skin (prior to topical administration of the drugs), and subsequently, approximately 8 minutes after topical administration of the drugs. A CSI Portable Diffuse Reflectance Spectrometer, developed by Canfield Scientific Instruments, Inc. (Fairfield, N.J.), was used for these surface measurements. […] One leg of the bifurcated fiber optic bundle is coupled to the lamp and the other leg is coupled to the spectrometer. The joined end of the fiber bundle (approximately 3 mm in diameter) was placed in contact with the skin surface from which measurements were made. The measurements were made across a 330 nm to 840 nm spectral range, with a 0.5 nm resolution. The integration time for the measurements was set at 50 kHz.
The tape stripping of the skin causes a mild irritation of the skin, leading to a transient erythema.

| signs of inflammation on follow up examination (sclera) | optical transmission ([1]; wavelengths above 400 nm) | optical transmission ([1]; wavelengths below approximately 400 nm) | Compound | time for sclera to turn clear (sclera) | increase in diffuse transmission through the sclera (porcine sclera; submerged 5 minutes) | increase in diffuse transmission through the sclera (porcine sclera; submerged 10 minutes) [%] | increase in diffuse transmission through the sclera (porcine sclera; submerged 15 minutes) [%] | clearing of edematous corneas following topical administration (edematous corneas) | increase in absorbance of tissue, in-vivo (human skin) |
| --- | --- | --- | --- | --- | --- | --- | --- | --- | --- |
| no signs of inflammation | very high transmission | very low transmission | CC(=O)Nc1c(I)c(NC(C)=O)c(I)c(C(=O)O)c1I.CNC[C@H](O)[C@@H](O)[C@H](O)[C@H](O)CO [diatrizoate meglumine acid] | approximately 1 minute | up to 200% | ≤ 395 | ≤ 975 |  |  |
| no signs of inflammation |  |  | OCC(O)CO [glycerol] | less than 5 seconds | up to 240% | ≤ 660 | ≤ 1090 | effective in clearing edematous corneas, within two minutes | up to 60.5% |
